Test system: tobacco budworm (Heliothis virescens [Fabricius])
Assay: surface-treated diet test against the tobacco budworm
Assay type: in vivo
Settings: tobacco budworm second instar larvae, surface-treated diet, 0.25 millimoles of candidate insecticide on the surface of the diet, five-day exposure; for Percent Mortality: compared to total number of insects infested; for Percent Growth Inhibition: inhibition of insect weight relative to untreated controls
Protocol: Candidate insecticides were evaluated for activity against the tobacco budworm (Heliothis virescens [Fabricius]) in a surface-treated diet test.
In this test one mL of molten (65–70° C.) wheat germ-based artificial diet was pipetted into each well of a four by six (24 well) multi-well plate (ID# 430345-15.5 mm dia.×17.6 mm deep; Corning Costar Corp., One Alewife Center, Cambridge, Mass. 02140). The diet was allowed to cool to ambient temperature before treatment with candidate insecticide.
For a determination of insecticidal activity, solutions of the candidate insecticides were prepared for testing using a Packard 204DT Multiprobe® Robotic System (Packard Instrument Company, 800 Research Parkway, Meriden, Conn. 06450), in which the robot first diluted a standard 50 millimolar DMSO solution of candidate insecticide with a 1:1 water/acetone solution (V/V) in a ratio of 1:7 stock solution to water/acetone. The robot subsequently pipetted 40 microliters of the so-prepared solution onto the surface of the diet in each of three wells in the 24 multi-well plate. The process was repeated with solutions of seven other candidate insecticides. Once treated, the contents of the multi-well plate were allowed to dry, leaving 0.25 millimoles of candidate insecticide on the surface of the diet, or a concentration of 0.25 millimolar. Appropriate untreated controls containing only DMSO on the diet surface were also included in this test. […]
In each well of the test plate was placed one second instar tobacco budworm larvea, each weighing approximately five milligrams. After the larvae were placed in each well, the plate was sealed with clear polyfilm adhesive tape. The tape over each well was perforated to ensure an adequate air supply. The plates were then held in a growth chamber at 25° C. and 60% relative humidity for five days (light 14 hours/day).
After the five-day exposure period insecticidal activity for each rate of application of candidate insecticide was assessed as percent inhibition of insect weight relative to the weight of insects from untreated controls, and percent mortality when compared to the total number of insects infested.
The test compounds of formula I are identified by numbers that correspond to those in Table 1.
These tests were conducted with 0.25 millimoles of candidate insecticide on the surface of the diet.

SMILES	Percent Mortality	Percent Growth Inhibition
Cn1nnc(-c2ccc(C[N+]3([O-])CCC(=C(c4ccc(C(F)(F)F)cc4)c4ccc(C(F)(F)F)cc4)CC3)cc2)n1 (stereo not shown) [Compound 112]	100%	100%
CCn1nnc(-c2ccc(C[N+]3([O-])CCC(=C(c4ccc5c(c4)OC(F)(F)O5)c4ccc5c(c4)OC(F)(F)O5)CC3)cc2)n1 (stereo not shown) [Compound 115]	100%	100%
FC(F)(F)c1ccc(C(=C2CC3CCCC(C2)N3Cc2ccc(Oc3ccccn3)cc2)c2ccc(C(F)(F)F)cc2)cc1 [Compound 117, 2-{4-[(9-aza-3-{bis[4-(trifluoromethyl)phenyl]methylene}bicyclo[3.3.1]non-9-yl)methyl]phenoxy}pyridine]	100%	100%
O=C(Nc1ccc(F)cc1)Oc1ccc(CN2CCC(C(OC(=O)Nc3ccc(F)cc3)c3ccc(OC(F)(F)F)cc3)CC2)cc1 (stereo not shown) [Compound 181]	100%	100%
CCON=Cc1ccc(CN2CCC(C(OC(=O)Nc3ccc(Cl)cc3)c3ccc(C(F)(F)F)cc3)CC2)cc1 (stereo not shown) [Compound 182]	100%	100%
CCON=Cc1ccc(CN2CCC(C(OC(=O)Nc3ccc(Br)cc3)c3ccc(C(F)(F)F)cc3)CC2)cc1 (stereo not shown) [Compound 183]	100%	100%
CCON=Cc1ccc(CN2CCC(C(OC(=O)Nc3cccc(Cl)c3Cl)c3ccc(C(F)(F)F)cc3)CC2)cc1 (stereo not shown) [Compound 188]	100%	100%
CCON=Cc1ccc(CN2CCC(C(OC(=O)Nc3ccc(Cl)c(Cl)c3)c3ccc(C(F)(F)F)cc3)CC2)cc1 (stereo not shown) [Compound 189]	100%	100%
CCON=Cc1ccc(CN2CCC(C(OC(=O)Nc3ccc(Cl)cc3Cl)c3ccc(C(F)(F)F)cc3)CC2)cc1 (stereo not shown) [Compound 190]	100%	100%
CCON=Cc1ccc(CN2CCC(C(OC(=O)Nc3cc(Cl)ccc3Cl)c3ccc(C(F)(F)F)cc3)CC2)cc1 (stereo not shown) [Compound 191]	100%	100%
CCON=Cc1ccc(CN2CCC(C(OC(=O)Nc3cc(Cl)c(Cl)cc3Cl)c3ccc(C(F)(F)F)cc3)CC2)cc1 (stereo not shown) [Compound 192]	67%	98%
CCON=Cc1ccc(CN2CCC(C(OC(=O)Nc3ccc(F)cc3F)c3ccc(C(F)(F)F)cc3)CC2)cc1 (stereo not shown) [Compound 193]	100%	100%
CON=Cc1ccc(CN2CCC(C(OC(=O)Nc3ccc(F)c(F)c3)c3ccc(OC(F)(F)F)cc3)CC2)cc1 (stereo not shown) [Compound 194]	100%	100%
CCON=Cc1ccc(CN2CCC(C(OC(=O)Nc3ccc(F)c(F)c3)c3ccc(OC(F)(F)F)cc3)CC2)cc1 (stereo not shown) [Compound 195]	100%	100%
CCON=Cc1ccc(CN2CCC(C(OC(=O)Nc3ccc(F)c(F)c3)c3ccc(C(F)(F)F)cc3)CC2)cc1 (stereo not shown) [Compound 196]	100%	100%
CCON=Cc1ccc(CN2CCC(C(OC(=O)Nc3c(F)cccc3F)c3ccc(C(F)(F)F)cc3)CC2)cc1 (stereo not shown) [Compound 199]	100%	100%
CCON=Cc1ccc(CN2CCC(C(OC(=O)Nc3cc(F)cc(F)c3)c3ccc(C(F)(F)F)cc3)CC2)cc1 (stereo not shown) [Compound 200]	100%	100%
CCON=Cc1ccc(CN2CCC(C(OC(=O)Nc3ccc(F)c(F)c3F)c3ccc(C(F)(F)F)cc3)CC2)cc1 (stereo not shown) [Compound 201]	100%	100%

SMILES	Percent Mortality	Percent Growth Inhibition
CCON=Cc1ccc(CN2CCC(C(OC(=O)Nc3c(F)c(F)c(F)c(F)c3F)c3ccc(C(F)(F)F)cc3)CC2)cc1 (stereo not shown) [Compound 202]	100%	100%
CCON=Cc1ccc(CN2CCC(C(OC(=O)Nc3ccccc3C(F)(F)F)c3ccc(C(F)(F)F)cc3)CC2)cc1 (stereo not shown) [Compound 203]	100%	100%
CCON=Cc1ccc(CN2CCC(C(OC(=O)Nc3cccc(C(F)(F)F)c3)c3ccc(C(F)(F)F)cc3)CC2)cc1 (stereo not shown) [Compound 204]	100%	100%
CCON=Cc1ccc(CN2CCC(C(OC(=O)Nc3ccc(C(F)(F)F)cc3)c3ccc(C(F)(F)F)cc3)CC2)cc1 (stereo not shown) [Compound 205]	33%	100%
CCON=Cc1ccc(CN2CCC(C(OC(=O)Nc3ccc(Cl)cc3C(F)(F)F)c3ccc(C(F)(F)F)cc3)CC2)cc1 (stereo not shown) [Compound 206]	100%	100%
CCON=Cc1ccc(CN2CCC(C(OC(=O)Nc3ccc(Cl)c(C(F)(F)F)c3)c3ccc(C(F)(F)F)cc3)CC2)cc1 (stereo not shown) [Compound 207]	100%	100%
CCON=Cc1ccc(CN2CCC(C(OC(=O)Nc3ccc(Br)cc3C(F)(F)F)c3ccc(C(F)(F)F)cc3)CC2)cc1 (stereo not shown) [Compound 208]	100%	100%
CCON=Cc1ccc(CN2CCC(C(OC(=O)Nc3ccc(OC)cc3)c3ccc(C(F)(F)F)cc3)CC2)cc1 (stereo not shown) [Compound 209]	100%	100%
CCON=Cc1ccc(CN2CCC(C(OC(=O)Nc3cc(Cl)c(OC)cc3OC)c3ccc(C(F)(F)F)cc3)CC2)cc1 (stereo not shown) [Compound 210]	0%	67%
CCON=Cc1ccc(CN2CCC(C(OC(=O)Nc3ccc(OC(F)(F)F)cc3)c3ccc(C(F)(F)F)cc3)CC2)cc1 (stereo not shown) [Compound 211]	100%	100%
CCON=Cc1ccc(CN2CCC(C(OC(=O)Nc3ccc(-c4ccccc4)cc3)c3ccc(C(F)(F)F)cc3)CC2)cc1 (stereo not shown) [Compound 212]	100%	100%
CCON=Cc1ccc(CN2CCC(C(OC(=O)Nc3cccc4c3CC=CC4)c3ccc(C(F)(F)F)cc3)CC2)cc1 (stereo not shown) [Compound 214]	0%	100%
O=C(Nc1ccc(Cl)cc1)OC(c1ccc(C(F)(F)F)cc1)C1CCN(Cc2ccc(Oc3ccccn3)cc2)CC1 (stereo not shown) [Compound 227, N-(4-chlorophenyl)({1-[(4-(2-pyridyloxy)phenyl)methyl](4-piperidyl)}[4-(trifluoromethyl)phenyl]methoxy)carboxamide]	100%	100%
O=C(Nc1cccc(Cl)c1Cl)OC(c1ccc(C(F)(F)F)cc1)C1CCN(Cc2ccc(Oc3ccccn3)cc2)CC1 (stereo not shown) [Compound 228]	100%	100%
O=C(Nc1ccc(Cl)c(Cl)c1)OC(c1ccc(C(F)(F)F)cc1)C1CCN(Cc2ccc(Oc3ccccn3)cc2)CC1 (stereo not shown) [Compound 230]	100%	100%
O=C(Nc1cc(Cl)ccc1Cl)OC(c1ccc(C(F)(F)F)cc1)C1CCN(Cc2ccc(Oc3ccccn3)cc2)CC1 (stereo not shown) [Compound 231]	100%	100%
O=C(Nc1cc(Cl)cc(Cl)c1)OC(c1ccc(C(F)(F)F)cc1)C1CCN(Cc2ccc(Oc3ccccn3)cc2)CC1 (stereo not shown) [Compound 232]	100%	100%

Reference: US7300946B2, “N-(substituted arylmethyl)-4-(disubstituted methyl) piperidines and pyridines” (Bayer CropScience AG, priority 2002, dated 2007)
